What all share (test): NCI-60 cell line screen, 48 h
Test [1] concerns UACC-62 melanoma.
Test [2] has as its system OVCAR-8 ovarian.
Test [3] concerns SK-MEL-28 melanoma.
Test [4] deals with HL-60(TB) leukemia.
The test system of test [5] is HT29 colon.
Test [6] deals with SF-539 CNS.
Test [7] has as its system NCI-H226 lung.
For test [8], the system named is NCI-H460 lung.
In test [9] the test system is A549 NSCLC.
Test [10] concerns RPMI-8226 leukemia.

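Step 1: Grow cells in 96-well plates. Step 2: Expose to compound for 48 hours at 5 concentrations. Step 3: Interpolate endpoints linearly; if unreached, use highest concentration. Abbreviation: GI50, concentration required for 50% inhibition of growth. TGI marks complete inhibition of growth.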

Consider `O=C(CCC(=O)Nc1ccc(Cl)c(Cl)c1)CC(=O)c1ccc(F)cc1`, for which the TGI in test [1], in test [2], in test [3], in test [4], in [5] and in test [6] was more than 100 µM each time. The TGI in [7], in [8] and in test [9] was more than 100 µM in each case.
`Cc1cn(C2C=CC(CO)O2)c(=O)[nH]c1=O` (centres undefined): the TGI in test [1], in test [2], in test [10], in [4], in test [5] and in [6] was more than 1000 µM each time. For the same compound, the TGI in [7] and in test [9] was more than 1000 µM in each case.
As for `N#CC1CCCCOCCOCCOCCOCCOCCCCCC1=O` (centres undefined), the TGI in test [1], in [2], in test [3], in test [10], in [4] and in test [5] was more than 100 µM each time. The TGI in test [7], in [8] and in test [9] was more than 100 µM each time.
Turning to `O=C(/C=C/c1ccco1)c1ccc(NCc2nc3ccccc3[nH]2)cc1`, the TGI is 30.2 µM in test [1]; 47.8 µM in test [2]; 33.8 µM in test [3]; 30.6 µM in test [4]; 38.3 µM in test [5]; 33.2 µM in test [6]. The TGI in test [7] was 13.8 µM; in test [8], more than 100 µM.
Turning to `Cc1noc2c1C(=O)CCC2`, the TGI in [1], in test [2], in test [3], in test [10], in test [4] and in test [5] was more than 100 µM throughout. Further, the TGI in test [6] and in test [7] was more than 100 µM each time.
As to `CC(=O)N1N=C(c2ccc(Nc3ccnc4cc(Cl)ccc34)cc2)CC1c1ccc(Cl)cc1` (centres undefined), the GI50 in [1] was 2.95 µM; in [2] it was more than 100 µM; in test [3], 4.88 µM; in test [4] it was 3.56 µM; in [5] it was 5.4 µM; in test [6], more than 100 µM. Further, the results for the GI50 in test [7], in test [8] and in test [9] were more than 100 µM, more than 100 µM and 8.81 µM, respectively. In addition, the TGI in [1], in test [2], in [3], in test [4], in test [5] and in test [6] was more than 100 µM throughout. For the same compound, the TGI in test [7], in [8] and in test [9] was more than 100 µM each time.
Consider `Cc1cc(S(=O)(=O)/N=C/N(C)C)c(SC(=O)c2ccc(Cl)cc2)cc1Cl`, for which the GI50 in test [1] is 29.9 µM; in [2] it was 40.9 µM; in [3], 48.9 µM; in test [10], 25.4 µM; in test [4], 42.5 µM; in [6], 26.7 µM. Further, the GI50 in test [7] was 27.8 µM; in [8], 56.5 µM; in test [9], 34.1 µM. For the same compound, the TGI was more than 100 µM in test [1]; more than 100 µM in [2]; more than 100 µM in [3]; 80.6 µM in test [10]; more than 100 µM in test [4]; 52.1 µM in [6]. Further, the TGI is 87.2 µM in test [7], more than 100 µM in [8] and 85.2 µM in [9].
`Cc1cccc(C(C)C)c1N1C(=O)C(=O)C(c2nc3ccccc3o2)C(=O)C1=O`: the TGI in [1] is more than 100 µM; in [2], more than 100 µM; in [3] it was more than 100 µM; in test [4], 80.9 µM; in [5], more than 100 µM; in test [6], more than 100 µM. Also, the TGI in [7], in [8] and in test [9] was more than 100 µM in each case.
As to `O=C(O)C1CCCCC1c1c2ccc(=O)c(O)c-2oc2c(O)c(O)ccc12` (centres undefined), the TGI is more than 100 µM in [1]; 88.7 µM in test [2]; more than 100 µM in [3]; 69.7 µM in test [10]; 65.2 µM in [4]; more than 100 µM in test [5]. Moreover, the TGI is 71.5 µM in test [7], more than 100 µM in test [8] and 48.6 µM in test [9].
`Brc1ccc2[nH]cc(-c3nc(-c4c[nH]c5ncccc45)cs3)c2c1`: the GI50 in test [1] is 3.64 µM; in test [2] it was 4.07 µM; in test [3], 4.27 µM; in test [10] it was 4.82 µM; in test [4], 4.29 µM; in test [6] it was 5.37 µM. Besides, the GI50 in [7] is 5.02 µM; in [8] it was 3.12 µM; in test [9] it was 3.2 µM. The TGI in test [1] was 16.6 µM; in test [2] it was more than 100 µM; in [3] it was 16.1 µM; in test [10], 63.9 µM; in [4] it was more than 100 µM; in [6] it was 23.9 µM. The TGI in [7] came to 21.7 µM; in [8], 10.9 µM; in [9], 16.3 µM.

The values are drawn from PubChem BioAssay (NCI).
